Among the data in patent EP0754455A1, “PHARMACEUTICAL COMPOSITIONS BASED ON AMINOMETHYLINDOLES AND THEIR THERAPEUTICAL APPLICATION AS NEUROPROTECTORS IN PARKINSON AND ALZHEIMER DISEASES” (CONSEJO SUPERIOR INVESTIGACIONES CIENTIFICAS (CSIC), priority 1995, dated 1996) are IC50 values, retold here.

The target of the test is T1, MAO-A (Homo sapiens, UniProt P21397).
T1 construct: performed using homogenated human cerebral cortex obtained from autopsies; from tissue; host or cells: post-mortem human cerebral cortex homogenate
T1 sequence (P21397 1-527): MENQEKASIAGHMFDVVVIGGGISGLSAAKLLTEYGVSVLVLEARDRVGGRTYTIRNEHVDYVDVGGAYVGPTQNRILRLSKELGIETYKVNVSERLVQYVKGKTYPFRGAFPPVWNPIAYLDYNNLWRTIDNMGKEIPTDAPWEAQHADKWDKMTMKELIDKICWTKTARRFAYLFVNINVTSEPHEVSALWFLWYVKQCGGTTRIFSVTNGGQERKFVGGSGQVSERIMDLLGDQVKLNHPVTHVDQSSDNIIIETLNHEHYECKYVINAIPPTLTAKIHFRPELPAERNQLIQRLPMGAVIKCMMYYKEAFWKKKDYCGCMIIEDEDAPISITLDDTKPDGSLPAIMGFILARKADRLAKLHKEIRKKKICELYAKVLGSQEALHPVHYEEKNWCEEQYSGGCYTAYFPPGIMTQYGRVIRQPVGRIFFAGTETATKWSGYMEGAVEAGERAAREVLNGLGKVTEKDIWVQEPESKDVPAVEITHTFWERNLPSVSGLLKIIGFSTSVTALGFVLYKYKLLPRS
The test is described as follows: MAO-A inhibition in homogenated human cerebral cortex. The test is classed as biochemical. The text has this:
They were provided by Dr. Fco Javier González Oliván (Forensic Anatomic Institute of the Hospital Clínico Provincial in Barcelona).

For the molecule `C#CCNCc1cc2cc(OCc3ccccc3)ccc2[nH]1` [FA-73], 20 µM corresponded to half-maximal inhibition (IC50).
